Reference: EP0366226A1, “Stabilized thiocarbonate solutions and the use thereof for controlling soil pests” (UNION OIL COMPANY OF CALIFORNIA, priority 1988, dated 1990)
Where a name gives a salt, the structure may show the parent alone.

Experiments:
Phytophthora cinnamomi = test: Fungicidal test, radial growth of mycelia from treated agar blocks; assay type: cell-based
Experimental: (§1) Thiocarbonate solutions were used in a test of their fungicidal properties. Cultures of four plant pathogenic fungi were grown upon potato dextrose agar at room temperature, in diffuse natural lighting. After one week, square blocks having 2 millimeter sides were cut from the edges of actively drawings mycelia spots on the agar.
(§2) The blocks were immersed in sterile deionized water, as a control, or in dilutions of thiocarbonate solutions using the sterile water, in a closed container. Subsequently, the blocks were removed and placed upon agar in clean plates, and mycelia were allowed to grow for one week.
(§3) Radial growth of mycelia colonies was measured for each of the six to eight replicate plates used for a particular fungus, and average colony radius was calculated. Percent control is defined by the following equation: […]
(§4) Concentrations given for solutions used to treat the agar blocks are expressed in grams of thiocarbonate solution per liter of diluted solution.

Verticillium dahliae = test: as above; assay type: cell-based
Experimental: as §1, §2, §3, §4

Sclerotium rolfsii = test: as above; assay type: cell-based
Experimental: as §1, §2, §3, §4

Fusarium oxysporum = test: as above; assay type: cell-based
Experimental: as §1, §2, §3, §4

[1] = CS2 in equilibrium vapor phase over concentrated thiocarbonate solutions (gas chromatography); assay type: physicochemical; conditions: for equilibrium CS₂ concentration in the vapor phase: 24° C., stoichiometric aqueous solution, 12.9 weight percent equivalent carbon disulfide
Experimental: Accordingly, the amount of base, sulfide and/or polysulfide employed should be sufficient to reduce the carbon disulfide partial pressure of the solution by the desired amount, and the amount of additive required to achieve that effect can be easily determined by adding different, known quantities of base, sulfide and/or polysulfide to the desired thiocarbonate solution, confining the vapor space over the solution at 24° C. for a sufficient period of time, e.g. about 24 hours, and analyzing, the vapor phase by gas chromotography for carbon disulfide. Lower additive concentrations will result in somewhat higher CS₂ equilibrium concentrations (e.g. higher CS₂ partial pressures), and higher additive concentrations will result in lower CS₂ partial pressures.
A series of solutions containing 12.9 weight percent equivalent carbon disulfide as sodium tri- or tetrathiocarbonate were prepared by combining sodium hydroxide, deionized water, sulfur (in the case of tetrathiocarbonate only), hydrogen sulfide and carbon disulfide. In the stoichiometric solutions, the reactants were combined in proportions sufficient to provide sodium tri- or tetrathiocarbonate solutions containing 12.9 weight percent equivalent carbon disulfide without any excess reactant. In addition to the stoichiometric solutions, solutions were prepared with systematically increasing sodium hydroxide concentrations at constant equivalent carbon disulfide concentrations, so that excess base was provided in those solutions in the proportions given in the following table.
The respective solutions were prepared by combining the appropriate amounts of base, water, and elemental sulfur (when used to form the tetrathiocarbonate), in 250 ml. bottles. The contents were then tared, and the appropriate amounts of hydrogen sulfide gas were bubbled in with cooling as necessary to form 100 grams of each of the test solutions. The bottles were then capped with Mininert valves, and the appropriate amount of carbon disulfide was added by injecting with a syringe. All sample bottles were shaken overnight to complete the reaction and were then allowed to equilibrate 3 days at 24° C., and the vapor phase was then sampled and analyzed for carbon disulfide by gas chromotography. The results are reported in the following table and show the effects of increasing base concentrations on carbon disulfide partial pressure (carbon disulfide content of the equilibrium vapor phase). Hydrogen sulfide was not detected in the vapor phase of these formulations at an H₂S detection limit of 100 ppmv.
The operation described in Example 19 was repeated with the exception that sodium sulfide (Na₂S) was substituted for excess base. The sodium sulfide was introduced by forming solutions containing incrementally greater amounts of sodium hydroxide and then adding additional amounts of hydrogen sulfide equivalent to the amount of excess sodium hydroxide to convert the excess sodium hydroxide to sodium sulfide in situ.

[2] = Accelerated ageing at 84° C.: effect of additives on thiocarbonate half-life; assay type: physicochemical; conditions: parentheses = decrease
Experimental: The effect of elemental sulfur additions and the addition of free radical scavengers on the half-life of thiocarbonate solutions was determined by an accelerated adding procedure in which the compositions were stored at 84° C. in order to accelerate decomposition and thereby facilitate data acquisition. Incremental additions of 1.0, 3.0 and 5.0 weight percent elemental sulfur were made, and these corresponds to 0.16, 0.48 and 0.86 equivalents of sulfur per equivalent of ammonium sulfide, respectively. Since the solutions contained 1 equivalent of ammonium sulfide per equivalent of ammonium tetrathiocarbonate (based on the weight percent values for those components given above), the amount of ammonium polysulfide in the solution correspond, nominally, to 0.16, 0.48 and 0.86 equivalents polysulfide per equivalent of thiocarbonate for the 3 sulfur concentrations employed.

[3] = Solvency of aqueous thiocarbonate solutions for urea; assay type: physicochemical; conditions: 46 percent solution
Experimental: Urea was added to a 41.5 percent, by weight, aqueous solution of calcium tetrathiocarbonate until the solubility limit of urea was reached. At room temperature, the solution dissolved 122 percent by weight urea. The resulting solution was 55 percent urea, 18.6 percent calcium tetrathiocarbonate, and 26.3 percent water, by weight. Thus, the solvency of the aqueous solution of calcium tetrathiocarbonate for urea was at least as great as that of water alone. Similarly, a 46 percent solution of potassium tetrathiocarbonate dissolved 100 percent of its own weight of urea. Similar results were obtained with other tri- and tetrathiocarbonates of alkali metal and alkaline earth metals.

[4] = Degradation time in sandy loam soil at different moisture (CS2 in air space by gas chromatography); assay type: physicochemical
Experimental: A sandy loam soil was placed in 1-liter glass bottles, fitted with stoppers having fluorocarbon liners and silicone rubber septa, to give a soil depth of about 4 cm. Water was added to the soil, in quantities to obtain 50 and 100 percent soil saturation. Thiocarbonate solution or carbon disulfide was then injected near the bottom of the soil layer, the bottles were promptly sealed, and the air space in the bottles was sampled at intervals with a syringe, for gas chromatographic analysis of CS₂. The results are summarized below, wherein degradation time is the number of hours required to achieve the maximum CS₂ concentration in the air space.

[5] = 10 g/l, listed as Na₂CS₄ (10.6%CS₂)
[6] = 1 g/l, listed as Na₂CS₄ (10.6%CS₂)
[7] = Base 0.00 equivalent per equivalent of CS2, sodium salt, 12.9 weight percent equivalent CS2
[8] = Base 0.02 equivalent per equivalent of CS2
[9] = Base 0.04 equivalent per equivalent of CS2
[10] = Base 0.08 equivalent per equivalent of CS2
[11] = Base 0.12 equivalent per equivalent of CS2
[12] = Sulfide 0.02 equivalent per equivalent of CS2
[13] = Sulfide 0.04 equivalent per equivalent of CS2
[14] = Sulfide 0.08 equivalent per equivalent of CS2
[15] = Sulfide 0.12 equivalent per equivalent of CS2
[16] = Sulfide (Na2S) 0.00 equivalent per equivalent of CS2, sodium salt, 12.9 weight percent equivalent CS2
[17] = additive Concentration 0.5 Wt. %
[18] = additive Concentration 1.0 Wt. %
[19] = additive Concentration 2.0 Wt. %
[20] = 1 g/l, listed as K₂CS₄ (9.43%CS₂)
[21] = 10 g/l, listed as K₂CS₄ (9.43%CS₂)
[22] = additive Concentration 5.0 Wt. %

In the case of `S=C(S)SS` [Na₂CS₄, sodium tetrathiocarbonate], the “Percent Control Phytophthora cinnamomi” value (Phytophthora cinnamomi; [5]) is reported as 37%, the “Percent Control Verticillium dahliae” value (Verticillium dahliae; [6]) is reported as 23% and the “Percent Control Sclerotium rolfsii” value (Sclerotium rolfsii; [5]) is reported as 100%. The “Percent Control Fusarium oxysporum” value (Fusarium oxysporum; [6]) was 4%, the “Percent Control Fusarium oxysporum” value (Fusarium oxysporum; [5]) was 6% and the “Percent Control Fusarium oxysporum” value (Fusarium oxysporum; 100 g/l thiocarbonate solution per liter of diluted solution, listed as Na₂CS₄ (10.6%CS₂)) was 100%. For the same molecule, the “equilibrium CS₂ concentration in the vapor phase” value [1] was “approximately 14 volume percent”, the “CS₂ in Equilibrium Vapor at 24° C., Vol. %” value (from here on “CS₂ … Vol. %”) [1, 7] was 14.4 Vol. % and the “CS₂ … Vol. %” value [1, 8] was 0.87 Vol. %. The “CS₂ … Vol. %” value [1, 9] was 0.47 Vol. %, the “CS₂ … Vol. %” value [1, 10] was 0.29 Vol. % and the “CS₂ … Vol. %” value [1, 11] was 0.27 Vol. %. For the same molecule, the “CS₂ … Vol. %” value [1, 12] was 6.60 Vol. %, the “CS₂ … Vol. %” value [1, 13] was 0.74 Vol. % and the “CS₂ … Vol. %” value [1, 14] was 0.12 Vol. %. The “CS₂ … Vol. %” value [1, 15] was 0.13 Vol. % and the “CS₂ … Vol. %” value [1, 16] was 14.4 Vol. %.

In the case of `COc1ccc(O)cc1` [p-Methoxyphenol], the “Increase (Decrease) in Half-Life, %” value [2, 17] is reported as 0%, the “Increase (Decrease) in Half-Life, %” value [2, 18] is reported as 0% and the “Increase (Decrease) in Half-Life, %” value [2, 19] is reported as 0%.

In the case of `O=C1O[C@H]([C@@H](O)CO)C(O)=C1O` [Ascorbic Acid], the “Increase (Decrease) in Half-Life, %” value [2, 17] is reported as 0%, the “Increase (Decrease) in Half-Life, %” value [2, 18] is reported as 0% and the “Increase (Decrease) in Half-Life, %” value [2, 19] is reported as 0%.

For `S=C(S)S` [Trithiocarbonate, sodium trithiocarbonate], the “equilibrium CS₂ concentration in the vapor phase” value [1] was 27 volume percent, the “CS₂ … Vol. %” value [1, 7] was 27.5 Vol. % and the “CS₂ … Vol. %” value [1, 8] was 34.2 Vol. %. The “CS₂ … Vol. %” value [1, 9] was 30.0 Vol. %, the “CS₂ … Vol. %” value [1, 10] was 0.67 Vol. % and the “CS₂ … Vol. %” value [1, 11] was 0.16 Vol. %. For the same molecule, the “CS₂ … Vol. %” value [1, 12] was 45.9 Vol. %, the “CS₂ … Vol. %” value [1, 13] was 1.39 Vol. % and the “CS₂ … Vol. %” value [1, 14] was 0.57 Vol. %. The “CS₂ … Vol. %” value [1, 15] was 0.42 Vol. % and the “CS₂ … Vol. %” value [1, 16] was 27.5 Vol. %.

With `S=C(S)SS` [K₂CS₄, potassium tetrathiocarbonate] the “urea dissolved by the solution” value [3] was 100% of its own weight, the “Percent Control Phytophthora cinnamomi” value (Phytophthora cinnamomi; [20]) was 56% and the “Percent Control Phytophthora cinnamomi” value (Phytophthora cinnamomi; [21]) was 68%. The “Percent Control Verticillium dahliae” value (Verticillium dahliae; [20]) was 27%, the “Percent Control Verticillium dahliae” value (Verticillium dahliae; [21]) was 15% and the “Percent Control Sclerotium rolfsii” value (Sclerotium rolfsii; [20]) was 42%. The “Percent Control Sclerotium rolfsii” value (Sclerotium rolfsii; [21]) was 8%, the “Percent Control Fusarium oxysporum” value (Fusarium oxysporum; [20]) was 8% and the “Percent Control Fusarium oxysporum” value (Fusarium oxysporum; [21]) was 10%. The “Percent Control Fusarium oxysporum” value (Fusarium oxysporum; 100 g/l thiocarbonate solution per liter of diluted solution, listed as K₂CS₄ (9.43%CS₂)) was 76%, the “Degradation Time” value ([4]; Soil Moisture 50 % of Saturation) was 5 h and the “Degradation Time” value ([4]; Soil Moisture 100 % of Saturation) was 48 h.

For `NC(N)=O` [Urea], the “Increase (Decrease) in Half-Life, %” value [2, 22] was 0%.

With `Oc1ccc(O)cc1` [Hydroquinone] the “Increase (Decrease) in Half-Life, %” value [2, 17] was 0%.

With `CCN(CC)CC` [Triethylamine] the “Increase (Decrease) in Half-Life, %” value [2, 18] was 0%.

In the case of Elemental Sulfur, the “Increase (Decrease) in Half-Life, %” value [2, 18] is reported as 0%, the “Increase (Decrease) in Half-Life, %” value ([2]; additive Concentration 3.0 Wt. %) is reported as 16% and the “Increase (Decrease) in Half-Life, %” value [2, 22] is reported as 22%.

For `O=C(O)CC(O)(CC(=O)O)C(=O)O` [Citric Acid, Na Salt], the “Increase (Decrease) in Half-Life, %” value [2, 17] was 0%, the “Increase (Decrease) in Half-Life, %” value [2, 18] was 0% and the “Increase (Decrease) in Half-Life, %” value [2, 19] was 0%.
